Source: ChEMBL document CHEMBL5357000, “Synthesis and structure-activity relationships of aryl fluorosulfate-based inhibitors as novel antitubercular agents” (Bioorg Med Chem Lett, 2024)
≈ marks a conversion by molar mass, not a printed value.

Columns and labels:
[1] = Cytotoxicity against human HEK293T cells assessed as reduction in cell viability measured after 3 days by CellTiterGlo Luminescent assay; type: toxicity, cell-based, HEK-293T; conditions: time 3 day
[2] = system: Mycobacterium tuberculosis; assay: Antitubercular activity against Mycobacterium tuberculosis H37Rv assessed as inhibition of bacterial growth incubated for 7 days by Microdilution Alamar Blue assay; type: functional; conditions: 168 h, time 7 day
[3] = Cytotoxicity against human HepG2 cells assessed as reduction in cell viability measured after 3 days by CellTiterGlo Luminescent assay; type: toxicity, cell-based; conditions: time 3 day
[4] = Drug uptake in mouse lungs at 20 mg/kg, po measured after 8 hrs; type: ADME, organism-based; conditions: lung, read-out: Drug uptake
[5] = Plasma concentration in mouse at 20 mg/kg, po measured after 8 hrs; type: ADME, organism-based

Structure (SMILES) | CC50 at 72 h [1] [µM] | MIC [2] [µM] | CC50 at 72 h [3] [µM] | concentration at 8 h [4] [ng/mL] | concentration at 8 h [5] [ng/mL]
O=S(=O)(F)Oc1ccc(OCc2c(F)cc(-n3cnnc3)cc2F)cc1 | > 40 | 0.22 (≈ 0.0848 µg/mL) | > 40 |  | 
CN(C)c1ncn(-c2cc(F)c(COc3ccc(OS(=O)(=O)F)cc3)c(F)c2)n1 | > 40 | 0.31 (≈ 0.133 µg/mL) | > 40 |  | 
CS(=O)(=O)Nc1ncn(-c2cc(F)c(COc3ccc(OS(=O)(=O)F)cc3)c(F)c2)n1 |  |  |  | 1600 | 2120
